The target in experiment [1] is Fibroblast growth factor receptor 3 (Homo sapiens) (UniProt P22607). The experiment is described as follows: FGFR3 SGC Tm panel (DSF). The following applies: Compound concentration 20.0 uM.
The target in experiment [2] is T1, Zinc finger and BTB domain-containing protein 11 (Homo sapiens) (UniProt O95625).
T1 sequence (whole entry): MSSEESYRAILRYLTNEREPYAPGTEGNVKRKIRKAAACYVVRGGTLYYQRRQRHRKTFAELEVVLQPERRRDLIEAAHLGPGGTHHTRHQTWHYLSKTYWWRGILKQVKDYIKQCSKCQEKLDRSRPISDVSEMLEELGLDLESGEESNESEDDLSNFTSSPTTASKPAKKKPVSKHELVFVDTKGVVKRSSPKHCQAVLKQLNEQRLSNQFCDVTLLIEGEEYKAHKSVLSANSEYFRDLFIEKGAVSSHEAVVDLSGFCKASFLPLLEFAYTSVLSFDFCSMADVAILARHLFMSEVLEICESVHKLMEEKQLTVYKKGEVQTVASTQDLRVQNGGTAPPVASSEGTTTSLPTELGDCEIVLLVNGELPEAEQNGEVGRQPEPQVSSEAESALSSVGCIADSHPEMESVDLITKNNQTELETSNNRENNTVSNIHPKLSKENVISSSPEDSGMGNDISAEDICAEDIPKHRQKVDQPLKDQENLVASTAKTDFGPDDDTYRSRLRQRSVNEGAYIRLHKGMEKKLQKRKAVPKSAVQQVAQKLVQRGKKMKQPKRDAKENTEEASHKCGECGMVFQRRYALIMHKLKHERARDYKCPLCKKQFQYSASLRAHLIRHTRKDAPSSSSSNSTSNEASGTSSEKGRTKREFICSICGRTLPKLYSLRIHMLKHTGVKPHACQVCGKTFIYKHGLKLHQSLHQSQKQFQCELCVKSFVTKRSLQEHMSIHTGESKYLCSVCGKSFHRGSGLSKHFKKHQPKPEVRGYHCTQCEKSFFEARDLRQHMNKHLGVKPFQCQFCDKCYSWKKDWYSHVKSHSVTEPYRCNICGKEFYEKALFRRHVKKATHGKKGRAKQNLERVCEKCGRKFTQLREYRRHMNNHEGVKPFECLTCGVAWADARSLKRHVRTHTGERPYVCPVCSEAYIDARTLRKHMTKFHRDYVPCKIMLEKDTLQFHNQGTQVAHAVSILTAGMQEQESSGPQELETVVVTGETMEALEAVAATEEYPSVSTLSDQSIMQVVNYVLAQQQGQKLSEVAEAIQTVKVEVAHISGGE
The note with it: SUD4, Compound concentration 1.0 uM.

The next experiment deals with Histamine H3 receptor (Homo sapiens, UniProt Q9Y5N1). The experiment is described as follows: GPCRScan assay: inhibition of H3. Set-up: radioligand conc. used [nm] 0.5 – 1.0, parental cells HEK Flp-In.
Histamine H3 receptor, sequence (Q9Y5N1 whole entry): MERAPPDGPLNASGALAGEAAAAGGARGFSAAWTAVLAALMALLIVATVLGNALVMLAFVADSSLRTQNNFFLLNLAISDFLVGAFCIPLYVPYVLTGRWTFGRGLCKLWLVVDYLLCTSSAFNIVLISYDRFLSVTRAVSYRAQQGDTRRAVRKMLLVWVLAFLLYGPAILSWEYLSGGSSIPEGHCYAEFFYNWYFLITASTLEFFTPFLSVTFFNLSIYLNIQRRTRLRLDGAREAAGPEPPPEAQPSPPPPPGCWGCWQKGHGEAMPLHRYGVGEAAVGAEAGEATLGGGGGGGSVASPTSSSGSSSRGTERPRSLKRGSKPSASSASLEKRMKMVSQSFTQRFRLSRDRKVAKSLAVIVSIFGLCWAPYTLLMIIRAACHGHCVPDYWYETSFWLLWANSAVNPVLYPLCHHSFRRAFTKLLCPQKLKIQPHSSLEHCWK
For experiment [3], the target named is Serine/threonine-protein kinase Nek1 (Homo sapiens) (UniProt Q96PY6). The experiment is described as follows: NEK1 SGC Tm panel (DSF). The following applies: Compound concentration 20.0 uM.
Serine/threonine-protein kinase Nek1 (Homo sapiens), sequence (Q96PY6 whole entry, the tested form may be a part): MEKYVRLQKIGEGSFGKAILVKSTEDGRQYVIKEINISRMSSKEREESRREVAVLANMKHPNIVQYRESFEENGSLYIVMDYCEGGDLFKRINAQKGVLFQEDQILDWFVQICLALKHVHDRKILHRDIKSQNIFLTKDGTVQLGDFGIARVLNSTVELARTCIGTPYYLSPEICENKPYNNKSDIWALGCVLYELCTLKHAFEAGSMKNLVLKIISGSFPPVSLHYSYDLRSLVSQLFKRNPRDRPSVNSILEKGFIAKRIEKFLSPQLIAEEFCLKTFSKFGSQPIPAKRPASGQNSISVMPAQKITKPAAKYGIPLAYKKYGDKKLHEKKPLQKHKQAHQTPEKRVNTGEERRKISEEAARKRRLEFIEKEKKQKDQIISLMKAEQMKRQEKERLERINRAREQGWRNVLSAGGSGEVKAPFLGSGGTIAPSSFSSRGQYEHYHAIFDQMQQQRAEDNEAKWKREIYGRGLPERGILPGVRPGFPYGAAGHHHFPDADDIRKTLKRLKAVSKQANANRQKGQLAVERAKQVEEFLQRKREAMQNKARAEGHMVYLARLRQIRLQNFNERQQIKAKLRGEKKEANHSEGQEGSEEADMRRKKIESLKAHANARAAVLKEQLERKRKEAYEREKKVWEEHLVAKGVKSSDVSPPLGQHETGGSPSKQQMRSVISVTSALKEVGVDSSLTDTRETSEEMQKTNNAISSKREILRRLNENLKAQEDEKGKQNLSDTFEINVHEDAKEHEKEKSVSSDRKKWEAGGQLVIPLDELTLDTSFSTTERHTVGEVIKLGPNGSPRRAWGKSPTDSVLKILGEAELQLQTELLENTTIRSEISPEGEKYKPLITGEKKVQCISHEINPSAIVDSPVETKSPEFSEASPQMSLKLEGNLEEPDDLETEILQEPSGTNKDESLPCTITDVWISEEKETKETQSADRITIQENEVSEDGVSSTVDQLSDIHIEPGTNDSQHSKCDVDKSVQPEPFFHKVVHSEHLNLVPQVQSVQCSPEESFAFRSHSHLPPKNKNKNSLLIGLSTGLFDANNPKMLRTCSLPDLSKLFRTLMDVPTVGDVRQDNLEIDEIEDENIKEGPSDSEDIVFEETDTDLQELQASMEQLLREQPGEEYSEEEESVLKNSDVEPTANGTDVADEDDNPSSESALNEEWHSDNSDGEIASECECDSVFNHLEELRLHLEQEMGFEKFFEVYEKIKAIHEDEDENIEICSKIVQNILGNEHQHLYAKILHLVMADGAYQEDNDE
Experiment [4] addresses T2, Zinc finger and BTB domain-containing protein 40 (Homo sapiens) (UniProt Q9NUA8).
T2 sequence (whole entry): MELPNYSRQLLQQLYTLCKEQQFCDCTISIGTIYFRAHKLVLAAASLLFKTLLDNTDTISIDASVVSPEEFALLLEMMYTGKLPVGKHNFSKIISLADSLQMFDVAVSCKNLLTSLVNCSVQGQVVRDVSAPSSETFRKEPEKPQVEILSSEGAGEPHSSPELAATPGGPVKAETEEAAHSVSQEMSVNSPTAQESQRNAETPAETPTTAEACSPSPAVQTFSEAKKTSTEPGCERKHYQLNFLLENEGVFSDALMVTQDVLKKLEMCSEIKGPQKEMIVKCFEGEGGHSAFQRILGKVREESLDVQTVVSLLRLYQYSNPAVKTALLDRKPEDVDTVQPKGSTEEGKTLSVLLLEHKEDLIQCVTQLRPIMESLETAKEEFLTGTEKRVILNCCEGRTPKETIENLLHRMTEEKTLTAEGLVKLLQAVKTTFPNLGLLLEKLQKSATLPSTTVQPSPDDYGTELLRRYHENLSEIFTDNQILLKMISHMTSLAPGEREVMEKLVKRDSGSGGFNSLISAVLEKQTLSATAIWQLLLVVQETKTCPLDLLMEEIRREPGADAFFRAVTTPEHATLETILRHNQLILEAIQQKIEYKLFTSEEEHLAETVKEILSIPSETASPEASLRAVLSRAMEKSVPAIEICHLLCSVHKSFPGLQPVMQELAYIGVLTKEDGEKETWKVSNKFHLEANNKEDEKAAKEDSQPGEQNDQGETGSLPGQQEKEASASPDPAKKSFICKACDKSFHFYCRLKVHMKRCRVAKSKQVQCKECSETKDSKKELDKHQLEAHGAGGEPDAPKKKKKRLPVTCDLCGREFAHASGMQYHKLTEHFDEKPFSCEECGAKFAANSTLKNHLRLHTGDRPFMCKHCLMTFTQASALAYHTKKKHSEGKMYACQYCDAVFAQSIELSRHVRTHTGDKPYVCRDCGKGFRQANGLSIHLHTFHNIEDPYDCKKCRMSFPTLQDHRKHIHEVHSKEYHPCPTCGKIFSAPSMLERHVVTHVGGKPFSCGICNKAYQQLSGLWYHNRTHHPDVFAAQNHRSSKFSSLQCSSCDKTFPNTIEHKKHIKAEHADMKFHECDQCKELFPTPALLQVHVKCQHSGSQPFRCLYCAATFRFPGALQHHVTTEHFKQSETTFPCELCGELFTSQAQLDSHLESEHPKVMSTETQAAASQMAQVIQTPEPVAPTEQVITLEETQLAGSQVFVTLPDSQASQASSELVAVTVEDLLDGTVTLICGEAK
The following applies: OCI-Ly1, Compound concentration 1.0 uM.

This is an account of results in ChEMBL document CHEMBL5058646 (2022).

Each structure is given as a SMILES string.

Fibroblast growth factor receptor 3 (Homo sapiens), sequence (P22607 23-806 limits assumed): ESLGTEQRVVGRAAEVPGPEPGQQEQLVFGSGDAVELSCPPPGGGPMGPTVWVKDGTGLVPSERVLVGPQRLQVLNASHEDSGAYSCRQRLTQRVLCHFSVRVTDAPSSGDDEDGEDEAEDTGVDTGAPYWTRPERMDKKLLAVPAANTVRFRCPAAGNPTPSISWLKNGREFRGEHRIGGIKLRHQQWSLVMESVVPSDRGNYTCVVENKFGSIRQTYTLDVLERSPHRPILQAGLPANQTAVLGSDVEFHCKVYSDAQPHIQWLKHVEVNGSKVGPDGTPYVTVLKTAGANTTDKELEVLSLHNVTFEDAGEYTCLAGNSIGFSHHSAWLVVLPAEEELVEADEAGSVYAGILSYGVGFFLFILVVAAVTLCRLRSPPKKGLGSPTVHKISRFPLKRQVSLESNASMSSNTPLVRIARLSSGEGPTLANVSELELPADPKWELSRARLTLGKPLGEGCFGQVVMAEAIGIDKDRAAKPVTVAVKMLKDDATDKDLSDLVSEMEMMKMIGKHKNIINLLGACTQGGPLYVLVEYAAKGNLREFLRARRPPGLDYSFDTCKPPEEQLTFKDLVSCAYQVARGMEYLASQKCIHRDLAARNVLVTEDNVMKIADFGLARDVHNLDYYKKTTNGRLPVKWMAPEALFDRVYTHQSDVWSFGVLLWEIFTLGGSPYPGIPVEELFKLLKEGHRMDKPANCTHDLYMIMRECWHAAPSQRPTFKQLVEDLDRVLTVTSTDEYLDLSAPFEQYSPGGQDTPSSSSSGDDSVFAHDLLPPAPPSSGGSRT

As to `C[C@@H]1CN(c2ncc(Cl)c(Nc3ccc4c(c3)n(CCC(C)(C)O)c(=O)n4C)n2)C[C@H](C)C1(F)F`, the Tm in experiment [1] was 42 °C; in experiment [3], 47 °C. Besides, the LogFC in experiment [2] was -0.0504; in experiment [4], -0.194. For the same compound, the Ki was 2330 nM at Histamine H3 receptor (read-out: Ki) and 2040 nM on Histamine H3 receptor (read-out: pKi (converted)).

One may read the Tm as the temperature at which the thermal transition is half complete.
